Experimental data: patent US5532231A, “Antibacterial agent” (priority 1994, dated 1996)

Key:
E. coli ESS Kan^r = assay: Paper disc filter antibiotic assay (zone of inhibition); assay type: cell-based, Escherichia coli
Method: Escherichia coli ESS Kan^r, is a kanamycin resistant strain of E. coli ESS, derived by transducing E. coli ESS with P1:TnV, Kan^r. This strain was used for the standard antibiotic assays.
LB Kan medium was solidified by 1.5% Bacto agar (Difco). For the antibiotic assay, Nutrient Broth agar plates were used. NB medium is 0.8% Nutrient Broth (Difco) containing 0.5% NaCl (Merck). NB was solidified by 1.8% Bacto agar (Difco). The NB plates were overlaid by 3.5 ml NB soft agar (0.9% Bacto agar) mixed with 0.1 ml E. coli ESS Kan^r overnight culture.
Antibiotic activity against E. coli ESS Kan^r was determined by the paper disc filter assay (Leo et al., 1945). Unknown quantities of antibiotic TA or Focusin, dissolved in ethanol, saline or NB were applied to paper disc filters (6 mm diameter; Schleicher and Schull). After allowing the ethanol to evaporate in the hood for about 15 mins, the dry filters were placed on nutrient broth plates which had been overlaid with an overnight culture of E. coli ESS Kan^r as described above.
The diameter of the zone of inhibition was recorded after 18 hours in incubation at 37° C. The concentration of the antibacterial agents were determined from a standard inhibition curve prepared with known quantities of TA and Focusin.

[1] = assay type: physicochemical
Method: Focusin and TA at concentrations of 3 mg/ml were diluted either in ethanol or in saline containing 1% ethanol to yield a final concentration in each case of 30 μg/ml. The solutions were mixed at 37° C. for one hour under shaking, and then were centrifuged at 5000 g for 10 minutes. Several samples were taken from the supernatants of the tubes and were applied on disc filters in order to determine the concentration of the antibacterial agents in the saline and ethanol solutions, by the paper disc bioassay method.

Mycobacteria smegmatis = assay: Antimicrobial spectrum, liquid media, viable cell count; assay type: cell-based, Mycobacterium smegmatis; details: saturating concentrations
Method: (§1) Saturated solutions of TA and Focusin were prepared by adding 1.14 μg TA and 7 μg Focusin to 1 ml LB (final conc. of 1% ethanol). About 10^5 bacteria of various strains were then added. The control was bacteria in the same medium with no antibacterial agents. The bacteria were introduced at 37° C. with shaking at 100 rpm. When the control became turbid, viable cell count was performed on LB agar plates. Growth inhibition is presented as percentage of the no antibiotic control.

E. coli ESS [2] = assay: Killing effect of the washed treated mouse tissue; assay type: cell-based, Escherichia coli; details: for Inhibition % by the treated tissue*** / Inhibition % by the treated tissue**: 10 μg Focusin; for Inhibition % by the treated tissue***: after third transfer
Method: Focusin was tested in the same manner as that described above (under 8.1) with the exception that the tissues in the test tube were washed four times with a solution of 1 ml sterile saline. Each saline wash was for 1 hour at 37° C. Following incubation, the washing saline solution was added to an exponentially growing cultures of E. coli ESS in a concentration of 10^5 cells/ml.
The cultures with the saline wash were incubated at 37° C. for 6 hours and then viable cell count was performed in order to estimate the amount of killing by the antibacterial agent that were released from the tissues. After the four washes the tissues were transferred to 10^5 E. coli ESS log cultures and were then incubated for 5 hours. The tissues were transferred in this way for three times, each time the percentage of inhibition by the treated tissue was measured by viable count.
The tissues were treated as described in Section 8.2 above.
After the fourth wash, the treated tissues were transferred to E. coli ESS cultures (10^5 cells) in nutrient broth. The culture tubes were then incubated at 37° C. for 6 hours and the extent of growth inhibition was measured by viable cell count. The treated tissues were transferred to E. coli cultures two more times (a total of three times), and each time the percentage of growth inhibition by the treated tissues was checked.

E. coli K-12 = assay: Antimicrobial spectrum, liquid media, viable cell count; assay type: cell-based, Escherichia coli; details: saturating concentrations
Method: as §1

E. coli ESS [3] = assay: as above; assay type: cell-based, Escherichia coli; details: saturating concentrations
Method: as §1

Staphylococcus aureas = assay: as above; assay type: cell-based, Staphylococcus aureus; details: saturating concentrations
Method: as §1

CCCC1OC(=O)C(C)CC(C)CCCCC(=O)CCCC(CC)CCCC(COC)CCC(O)C(O)CC(O)CNC1=O (stereo not shown) [Focusin]
activity relative to TA at high concentrations (E. coli ESS Kan^r; high concentrations): 1/10
activity relative to TA at low concentrations (E. coli ESS Kan^r; low concentrations): approximately 1/8
amount giving an inhibition zone of 11 mm (E. coli ESS Kan^r; zone 11 mm, paper disc): 640 ng
amount required to obtain a zone of inhibition of about 2 mm (E. coli ESS Kan^r; zone about 2 mm, paper disc): 60 ng
aqueous solubility compared with TA (in words) [1]: higher aqueous solubility than TA
solubility in ethanol [1]: completely soluble
solubility in saline ([1]; saline with 1% ethanol, 1 h): about 7 μg/ml
killing (Mycobacteria smegmatis): 0%
inhibition by the washed tissues containing bound focusin (E. coli ESS [2]; all tissues, first transfer): ≥ 99%
inhibition after the third transfer (in words) (E. coli ESS [2]; bladder and eye): no inhibition was observed
Inhibition % by the treated tissue*** (E. coli ESS [2]; bladder): 0%
Inhibition % by the treated tissue** (E. coli ESS [2]; bladder, first transfer): > 99%
Inhibition % by the treated tissue*** (E. coli ESS [2]; eye): 0%
Inhibition % by the treated tissue** (E. coli ESS [2]; eye, first transfer): > 99%
Inhibition % by the treated tissue*** (E. coli ESS [2]; heart): 98%
Inhibition % by the treated tissue** (E. coli ESS [2]; heart, first transfer): 100%
Inhibition % by the treated tissue*** (E. coli ESS [2]; intestine): 38%
Inhibition % by the treated tissue** (E. coli ESS [2]; intestine, first transfer): 100%
Inhibition % by the treated tissue*** (E. coli ESS [2]; kidney): 90%
Inhibition % by the treated tissue** (E. coli ESS [2]; kidney, first transfer): 100%
Inhibition % by the treated tissue*** (E. coli ESS [2]; liver): 100%
Inhibition % by the treated tissue** (E. coli ESS [2]; liver, first transfer): 99%
Inhibition % by the treated tissue*** (E. coli ESS [2]; lungs): 17%
Inhibition % by the treated tissue** (E. coli ESS [2]; lungs, first transfer): 100%
Inhibition % by the treated tissue*** (E. coli ESS [2]; spleen): 98%
Inhibition % by the treated tissue** (E. coli ESS [2]; spleen, first transfer): 100%
Inhibition % by the treated tissue*** (E. coli ESS [2]; teeth): 91%
Inhibition % by the treated tissue** (E. coli ESS [2]; teeth, first transfer): 100%
killing (E. coli K-12): 100%
killing (E. coli ESS [3]): 100%
killing (Staphylococcus aureas): 100%
